{
  "source": "patent US5208344A",
  "about": "“Naphthalenepropionic acid derivatives as anti-inflammatory/antiallergic agents” (American Home Products Corporation, priority 1991, dated 1993)",
  "key": {"LTD4": {"biological_target": "T1, LTD4 (Cavia porcellus, UniProt Q2NNR5)", "T1 construct": "isolated guinea pig trachea; from tissue; host or cells: guinea pig tracheal rings", "T1 sequence (Q2NNR5 1-340)": "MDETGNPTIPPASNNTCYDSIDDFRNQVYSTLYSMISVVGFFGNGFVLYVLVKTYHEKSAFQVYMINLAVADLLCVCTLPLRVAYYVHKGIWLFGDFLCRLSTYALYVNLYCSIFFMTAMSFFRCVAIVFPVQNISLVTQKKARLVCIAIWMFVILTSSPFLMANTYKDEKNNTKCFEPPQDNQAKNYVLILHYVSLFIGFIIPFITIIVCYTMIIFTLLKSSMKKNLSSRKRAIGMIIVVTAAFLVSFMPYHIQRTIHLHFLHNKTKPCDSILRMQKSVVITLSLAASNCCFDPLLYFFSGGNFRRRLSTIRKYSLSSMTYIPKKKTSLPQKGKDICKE", "test": "LTD4 antagonist activity in isolated guinea pig trachea", "assay_type": "cell-based", "conditions": "reference leukotriene antagonists", "method": "The LTD4 antagonist activity of the compounds of the invention is assessed in the in vitro isolated guinea pig trachea assay. Male Hartley guinea pigs (350-400 g) are euthanized by a blow to the head, the neck is opened and the trachea removed. The trachea is maintained in aerated physiological salt solution, cleared of connective tissue and fat and cut into rings approximately 2 mm in width (usually containing two cartilaginous segments per ring). Two pieces of silk suture are then passed through the lumen of the tracheal ring and are tied around the cartilage, one on each side of the trachealis muscle. The tracheal ring is suspended between a glass hook and a force displacement transducer in a 10 ml organ bath for measurement of isometric tension. Tissues are maintained at 37° C. in aerated ([…] /5% CO2) physiological salt solution of the following composition: […] The tracheal rings are maintained at 2 g resting tension and equilibrated for 45 minutes (with frequence washing and readjustment of resting tension). The tracheal rings are first contracted by the addition of carbachol (3×10^-6 M), to determine tissue responsiveness and establish a reference contraction. On attainment of a stable level of contraction (approximately 30 minutes), the tissues are washed several times until baseline tension has been restored and the re-equilibrated for 30 minutes. The tissues are then incubated for 45 minutes with a test antagonist (either 1×10^-6 M or 1×10^-5 M) or 10 μl of an appropriate solvent control (control, non-treated). One tissue in each group serves as the control. Twenty minutes prior to the construction of the LTD4 cumulative concentration-response curve, L-[…]×10^-2 M final bath concentration) is added to inhibit bioconversion of LTD4 to LTE4. Only one LTD4 concentration-response curve is constructed in each tissue. All responses to LTD4 in an individual tissue are measured as a percentage of the reference contraction of that tissue to carbachol. LTD4 antagonist activity is determined by comparison of the concentration response curves of LTD4 in the presence and absence of antagonist. Assessment of the relative rightward shift of the antagonist treated curve relative to the solvent (control) treated tissue is calculated as a concentration ratio (Eq. A) and used in subsequent calculations to derive an antagonist pKB value (Eqs. B and C). In the vent that the maximum response to LTD4 is depressed, the EC50 for that particular curve is determined, an \"apparent\" pKB reported, and the compound reported as \"not-competitive.\" [formula] If a compound is found to be active and/or depress the maximal response to LTD4, then a range of concentrations of the test compound should be used generating multiple concentration ratios which would than be used to perform a Schild analysis, and determination of a pA2 value where appropriate."}, "pleural inflammation": {"system": "pleural inflammation", "test": "reverse passive Arthus pleurisy assay, pleural inflammation", "assay_type": "in vivo", "conditions": "rat; for ED30: po, 4 h; for ED30 / ED30 Fluid Exudation: p.o.", "method": "(§1) The compounds of the invention are further tested in the reverse passive Arthus pleurisy assay to evaluate their effectiveness in inflammatory mediator release and/or the fluid and cellular phases of an inflammatory response.\n(§2) A reverse passive Arthus reaction is induced in the pleural cavity of male Lewis rats (150-200 g; fasted overnight prior to use) by the intravenous administration of bovine serum albumin (BSA; 4 mg/0.2 ml) followed 30 minutes later by the injection of rabbit anti-BSA (1 mg/0.2 ml; lyophilized IgG fraction; Organon Teknika, West Chester, PA) into the right pleural space under halothane anesthesia. Drugs or vehicle (0.5% Tween-80) control are administered orally in a volume of 1 ml/100 g body weight at 1 hour prior to the anti-BSA. Animals are sacrificed at either the time of peak eicosanoid production (i.e. 5 minutes after anti-BSA for immunoreactive TxB2, 10 minutes for immunoreactive LTB4, 20 minutes for immunoreactive LTC4) or at the time of peak neutrophil infiltration (4 hours after anti-BSA) by CO2 inhalation. The pleural cavity is then exposed, the fluid exudate removed by gentle vacuum aspiration and the volume of exudate is recorded. For the determination of cellular infiltration, the pleural cavity is rinsed with 3 ml of 0.1% EDTA in sterile saline, and the recovered wash is pooled with the exudate. Cell number is determined on a model ZBI Coulter counter. For determination of eicosanoid production, undiluted pleural exudate is microfuged and the supernatant is extracted with ethanol (8-10 times volume). Extracts are either stored at -20° C., or are evaporated to dryness under a stream of N2 and reconstituted in radioimmunoassay (RIA) buffer.\n(§3) Inflammatory cells are expressed as 10^6 cells/ml, pleural exudate is expressed as ml of fluid, and the amount of eicosanoids in the pleural cavity is expressed as ng/ml of exudate. Mean±S.E.M. is determined for each group. Percent inhibition (% I) of cell number, exudate volume and eicosanoid production is calculated for vehicle-treated control groups, and the responses in drug-treated rats are then expressed as the mean $ I of control."}, "cyclooxygenase": {"system": "cyclooxygenase", "test": "inhibition of synthesis of cyclooxygenase products TxB2 and PGE2 (rat polymorphonuclear leukocytes)", "assay_type": "cell-based", "conditions": "10 μM; rat PMN; negative = potentiation of PGE2 synthesis", "method": "(§4) Peritoneal PMN are obtained from female Wistar rats (150-250 g) that received an i.p. injection of 6% glycogen (10 ml). After 24 hours, rats are killed by CO2 asphysiation and peritoneal cells are harvested by peritoneal lavage using Ca^++ and MG^++ free Hanks' balanced salt solution (HBSS). The peritoneal exudate is centrifuged at 400 g for 10 minutes. After centrifugation, the lavaged fluid is removed and the cell pellet is resuspended in HBSS containing Ca^++ and MG^++ and 10 mM L-cysteine at a concentration of 2×10^7 cells/ml. To 1 ml portions of cell suspension, test drugs or vehicle are added and incubated at 37° C. for 10 minutes. Following this preincubation, the calcium ionophore (10 μM), a23187, is added together with 0.5 μM [14 C] arachidonic acid and further incubated for 10 minutes. The reaction is stopped by the addition of ice cold water (3 ml) and acidifying to pH 3.5. Lipoxygenase products are then extracted twice into diethyl ether. The pooled ether extracts are evaporated to dryness under nitrogen and the residue is redissolved in a small volume of methanol and spotted on aluminum backed pre-coated thin layer chromatographic plates. The samples are then cochromatographed with authentic reference 5-HETE in the solvent system - hexane: ether: acetic acid (50:50:3). After chromatography, the areas associated with 5-HETE standard are identified by autoradiography, cut out and quantitated by liquid scintillation.\nHowever, in order to determine cyclooxygenase activity, the samples are cochromatographed with authentic reference TxB2 and PGE2 in the solvent system ethyl acetate: formic acid (80:1) and the upper phase of ethyl acetate: isooctane: acetic acid: water (110:50:20:100). After chromatography, the areas associated with the TxB2 and PGE2 standards are identified by autoradiography, cut out and quantitated by liquid scintillation techniques."}, "5-lipoxygenase": {"biological_target": "T2, 5-lipoxygenase (Rattus norvegicus, UniProt P12527)", "T2 construct": "Peritoneal PMN are obtained from female Wistar rats (150-250 g); endogenous in cells; host or cells: rat glycogen-elicited peritoneal polymorphonuclear leukocytes, intact", "T2 sequence (P12527 1-673)": "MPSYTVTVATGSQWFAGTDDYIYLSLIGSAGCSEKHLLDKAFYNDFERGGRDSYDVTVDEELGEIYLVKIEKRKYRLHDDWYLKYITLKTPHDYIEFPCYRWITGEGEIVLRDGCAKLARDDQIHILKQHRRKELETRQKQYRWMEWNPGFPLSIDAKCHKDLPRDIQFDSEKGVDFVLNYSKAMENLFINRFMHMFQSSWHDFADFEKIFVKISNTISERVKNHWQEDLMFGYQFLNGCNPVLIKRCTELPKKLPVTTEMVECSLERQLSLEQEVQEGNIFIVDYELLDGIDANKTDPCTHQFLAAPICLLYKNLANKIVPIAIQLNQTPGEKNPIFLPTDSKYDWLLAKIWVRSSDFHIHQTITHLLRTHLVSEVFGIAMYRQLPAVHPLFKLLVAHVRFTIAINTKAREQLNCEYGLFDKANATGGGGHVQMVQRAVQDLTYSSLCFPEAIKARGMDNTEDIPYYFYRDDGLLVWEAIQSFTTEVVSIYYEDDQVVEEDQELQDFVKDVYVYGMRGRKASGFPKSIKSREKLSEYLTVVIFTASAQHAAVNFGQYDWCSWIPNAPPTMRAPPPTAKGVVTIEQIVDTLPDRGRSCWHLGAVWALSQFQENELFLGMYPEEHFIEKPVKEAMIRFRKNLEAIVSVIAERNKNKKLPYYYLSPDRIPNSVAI", "test": "inhibition of 5-HETE synthesis by rat glycogen elicited polymorphonuclear leukocytes", "assay_type": "cell-based", "conditions": "read-out: % Inhibition of 5-LO (as 5-HETE)", "method": "The assay of this Example measures the ability of the compounds of the invention to inhibit the synthesis of 5-HETE by rat glycogen elicited polymorphonuclear leukocytes.\nas §4"}, "[1]": {"system": "inflammatory mediator release", "test": "reverse passive Arthus pleurisy assay, inflammatory mediator release", "assay_type": "in vivo, rat", "conditions": "rat; for ED50: Rattus norvegicus, po", "method": "as §1\nas §2, with “Drugs or vehicle (0.5% Tween-80) control are administered orally in a volume of 1 ml/100 g body weight at 1 hour prior to the anti-BSA.” left out\nEicosanoids are quantitated by RIA according to the procedure specified by the RIA kit manufacturer (Advanced Magnetics, Cambridge, MA). Briefly, 100 μl of ^3 H-labeled eicosanoid and 100 μl of specific antibody are sequentially added to 100 μl of extracted pleural exudate in BGG-phosphate buffer which contains 0.01 M phosphate, 0.1% bovine gamma globulin and 0.1% sodium azide at pH 7.0. Antibody-bound eicosanoid is separated form unbound eicosanoid by the addition of 750 μl of dextran (0.4%)-coated charcoal (0.4% Norit A) containing 0.1% sodium azide. The mixture is centrifuged at 2000 RPM at 5° C. for 15 minutes to pellet the charcoal and adsorbed unbound eicosanoid. Antibody-bound labeled eicosanoid is quantitated by counting in a liquid scintillation counter, and is correlated to concentration by a standard curve.\nas §3"}, "[2]": {"conditions": "5 min, p.o., 1 hour prior to anti-BSA, read-out: ED50 TxB2"}, "[3]": {"conditions": "10 min, p.o., 1 hour prior to anti-BSA, read-out: ED50 LTB4"}},
  "note": "Read-outs that look alike come from different tables or passages of the source.",
  "data": [
    {"smiles": "O=S(=O)(Nc1cccc(OCc2ccc3ccccc3n2)c1)C(F)(F)F", "note": "[Wy-48,252, reference compound]", "values": [
      {"measurement": "pKB", "setting": "LTD4", "result": "6.90 ± 0.23"}
    ]},
    {"smiles": "CN1C(C(=O)Nc2ccccn2)=C(O)c2ccccc2S1(=O)=O", "note": "[Piroxican]", "values": [
      {"measurement": "ED30", "setting": "pleural inflammation; read-out: ED30 Cellular Influx", "result": 3, "unit": "mg/kg"},
      {"measurement": "ED30", "setting": "pleural inflammation; read-out: ED30 Fluid Exudation", "result": 1, "unit": "mg/kg"}
    ]},
    {"smiles": "C[C@@H]1C[C@H]2[C@@H]3CCC4=CC(=O)C=C[C@]4(C)[C@@]3(F)[C@@H](O)C[C@]2(C)[C@@]1(O)C(=O)CO", "note": "[Dexamethasone]", "values": [
      {"measurement": "ED30 Fluid Exudation", "setting": "pleural inflammation", "result": 0.05, "unit": "mg/kg"},
      {"measurement": "ED30", "setting": "pleural inflammation; read-out: ED30 Cellular Influx", "result": 0.13, "unit": "mg/kg"}
    ]},
    {"smiles": "COc1ccc2cc([C@H](C)C(=O)O)ccc2c1", "note": "[naproxen]", "values": [
      {"measurement": "% Inhibition of CO (as PGE2)", "setting": "cyclooxygenase", "result": 85, "unit": "%"},
      {"measurement": "inhibition at 10 µM", "setting": "5-lipoxygenase", "result": -94, "unit": "%"},
      {"measurement": "% Inh LTB4", "setting": "[1]; 4 mg/kg p.o.", "result": 0, "unit": "%"},
      {"measurement": "ED50 TxB2", "setting": "[1]; p.o., 1 hour prior to anti-BSA, 5 min", "result": 0.24, "unit": "mg/kg"},
      {"measurement": "% Inh Cellular Influx", "setting": "pleural inflammation; 8 mg/kg p.o.", "result": 29, "unit": "%"},
      {"measurement": "ED30 Fluid Exudation", "setting": "pleural inflammation", "result": 3.9, "unit": "mg/kg"}
    ]},
    {"smiles": "NC1=NN(c2cccc(C(F)(F)F)c2)CC1", "note": "[BW755C]", "values": [
      {"measurement": "ED50", "setting": "[1]; [2]", "result": 18, "unit": "mg/kg"},
      {"measurement": "ED50", "setting": "[1]; [3]", "result": 23, "unit": "mg/kg"},
      {"measurement": "ED30", "setting": "pleural inflammation; read-out: ED30 Cellular Influx", "result": 28, "unit": "mg/kg"},
      {"measurement": "ED30", "setting": "pleural inflammation; read-out: ED30 Fluid Exudation", "result": 14, "unit": "mg/kg"}
    ]},
    {"smiles": "CCCc1c(OCCCCc2nn[nH]n2)ccc(C(C)=O)c1O", "note": "[Ly-171,883, reference compound]", "values": [
      {"measurement": "pKB", "setting": "LTD4", "result": "7.44 ± 0.12"}
    ]},
    {"smiles": "O=C1CCN(c2ccccc2)N1", "note": "[Phenidone]", "values": [
      {"measurement": "ED50", "setting": "[1]; [2]", "result": 69, "unit": "mg/kg"},
      {"measurement": "ED50", "setting": "[1]; [3]", "result": 10, "unit": "mg/kg"},
      {"measurement": "ED30", "setting": "pleural inflammation; read-out: ED30 Cellular Influx", "result": 23, "unit": "mg/kg"},
      {"measurement": "ED30", "setting": "pleural inflammation; read-out: ED30 Fluid Exudation", "result": 21, "unit": "mg/kg"}
    ]}
  ]
}
